Experimental data as given in ChEMBL document CHEMBL5154926, “Discovery of a Novel Series of Imipridone Compounds as Homo sapiens Caseinolytic Protease P Agonists with Potent Antitumor Activities In Vitro and In Vivo” (J Med Chem, 2022).

Tests used:
[1] = Clearance in Sprague-Dawley rat plasma at 5 mg/kg, iv after 0.083 to 24 hrs by LC-MS analysis; type: ADME, organism-based; details: time 0.083-24 hrs
[2] = Acute toxicity in BALB/c mouse assessed as change in CREA level in blood at 100 mg/kg, ig administered as single dose measured after 14 days; type: organism-based; details: in vivo, po, 336 h, time 14 day
[3] = Toxicity in BALB/c nude mouse xenografted with human HCT-116 cells assessed as body weight loss at 40 mg/kg, po administered twice a week for 19 days and measured every other day; type: organism-based; details: in vivo, 456 h, time 19 day
[4] = Acute toxicity in BALB/c mouse assessed as pathological damage in lung at 100 mg/kg, ig administered as single dose measured after 14 days by hematoxylin and eosin staining method; type: organism-based; details: in vivo, po, 336 h, time 14 day
[5] = Acute toxicity in BALB/c mouse assessed as pathological damage in heart at 100 mg/kg, ig administered as single dose measured after 14 days by hematoxylin and eosin staining method; type: organism-based; details: in vivo, po, 336 h, time 14 day
[6] = Tmax in Sprague-Dawley rat plasma at 15 mg/kg, po after 0.25 to 24 hrs by LC-MS analysis; type: ADME, organism-based; details: time 0.25-24 hrs
[7] = Acute toxicity in BALB/c mouse assessed as change in ALT level in blood at 100 mg/kg, ig administered as single dose measured after 14 days; type: organism-based; details: in vivo, po, 336 h, time 14 day
HCT-116 [8] = assay: Antitumor activity in human HCT-116 cells xenografted in BALB/c nude mouse assessed tumor growth inhibition at 10 mg/kg, po administered twice a week for 19 days and measured every other day; type: functional; details: HCT-116, 456 h, time 19 day, read-out: TGI
in vivo [9] = details: Sprague-Dawley, rat, plasma, po, 15 mg/kg
[10] = Acute toxicity in BALB/c mouse assessed as pathological damage in spleen at 100 mg/kg, ig administered as single dose measured after 14 days by hematoxylin and eosin staining method; type: organism-based; details: in vivo, po, 336 h, time 14 day
[11] = Acute toxicity in BALB/c mouse assessed as change in CKMB level in blood at 100 mg/kg, ig administered as single dose measured after 14 days; type: organism-based; details: in vivo, po, 336 h, time 14 day
[12] = Terminal half life in Sprague-Dawley rat plasma at 5 mg/kg, iv after 0.083 to 24 hrs by LC-MS analysis; type: ADME, organism-based; details: time 0.083-24 hrs, read-out: beta t1/2 (converted)
[13] = Acute toxicity in BALB/c mouse assessed as pathological damage in kidney at 100 mg/kg, ig administered as single dose measured after 14 days by hematoxylin and eosin staining method; type: organism-based; details: in vivo, po, 336 h, time 14 day
[14] = Acute toxicity in BALB/c mouse assessed as pathological damage in liver at 100 mg/kg, ig administered as single dose measured after 14 days by hematoxylin and eosin staining method; type: organism-based; details: in vivo, po, 336 h, time 14 day
HCT-116 [15] = assay: Antitumor activity in human HCT-116 cells xenografted in BALB/c nude mouse assessed tumor growth inhibition at 5 mg/kg, po administered twice a week for 19 days and measured every other day; type: functional; details: HCT-116, 456 h, time 19 day, read-out: TGI
[16] = Acute toxicity in BALB/c mouse assessed as change in UREA in blood at 100 mg/kg, ig administered as single dose measured after 14 days; type: organism-based; details: in vivo, po, 336 h, time 14 day
[17] = Acute toxicity in BALB/c mouse assessed as body weight loss at 100 mg/kg, ig administered as single dose measured every day for 14 days; type: organism-based; details: in vivo, po, 336 h, time 14 day
[18] = Acute toxicity in BALB/c mouse assessed as adverse effect at 100 mg/kg, ig administered as single dose measured every day for 14 days; type: organism-based; details: in vivo, po, 336 h, time 14 day
HCT-116 [19] = assay: Antitumor activity in human HCT-116 cells xenografted in BALB/c nude mouse assessed tumor growth inhibition at 20 mg/kg, po administered twice a week for 19 days and measured every measured every other day; type: functional; details: HCT-116, 456 h, time 19 day, read-out: TGI
[20] = Cmax in Sprague-Dawley rat plasma at 5 mg/kg, iv after 0.083 to 24 hrs by LC-MS analysis; type: ADME, organism-based; set-up: dose 5 mg/kg, time 0.083-24 hrs, route iv
[21] = Toxicity in BALB/c nude mouse xenografted with human HCT-116 cells assessed as body weight loss at 5 mg/kg, po administered twice a week for 19 days and measured every other day; type: organism-based; details: in vivo, 456 h, time 19 day
[22] = MRT (0 to 24 hrs) in Sprague-Dawley rat plasma at 5 mg/kg, iv after 0.083 to 24 hrs by LC-MS analysis; type: ADME, organism-based; details: time 0.083-24 hrs
in vivo [23] = details: Sprague-Dawley, rat, plasma, iv, 5 mg/kg
[24] = Oral bioavailability in Sprague-Dawley rat plasma at 15 mg/kg after 0.25 to 24 hrs by LC-MS analysis; type: ADME, organism-based; details: time 0.25-24 hrs
[25] = Cmax in Sprague-Dawley rat plasma at 15 mg/kg, po after 0.25 to 24 hrs by LC-MS analysis; type: ADME, organism-based; set-up: time lower 0.25 hrs, dose 15 mg/kg, time upper 24 hrs, route po
[26] = Toxicity in BALB/c nude mouse xenografted with human HCT-116 cells assessed as body weight loss at 10 mg/kg, po administered twice a week for 19 days and measured every other day; type: organism-based; details: in vivo, 456 h, time 19 day
[27] = Acute toxicity in BALB/c mouse assessed as change in AST level in blood at 100 mg/kg, ig administered as single dose measured after 14 days; type: organism-based; details: in vivo, po, 336 h, time 14 day
[28] = MRT (0 to 24 hrs) in Sprague-Dawley rat plasma at 15 mg/kg, po after 0.25 to 24 hrs by LC-MS analysis; type: ADME, organism-based; details: time 0.25-24 hrs
[29] = Terminal half life in Sprague-Dawley rat plasma at 15 mg/kg, po after 0.25 to 24 hrs by LC-MS analysis; type: ADME, organism-based; details: time 0.25-24 hrs, read-out: beta t1/2 (converted)

Cl.Cl.O.O=c1nc2n(c3c1CN(Cc1ccccc1)CC3)CCN2Cc1ccc(F)c(Br)c1
clearance [1]: 35.7 mL/min/kg
Activity [2]: Non-Toxic
Activity [3]: 25%
Activity [4]: Non-Toxic
Activity [5]: Non-Toxic
Tmax [6]: 19.8 min
Activity [7]: Non-Toxic
inhibition in vivo at 10 mg/kg (HCT-116 [8]): 60%
AUC(0-t) (in vivo [9]): 4270 ng·h/mL
Activity [10]: Non-Toxic
Activity [11]: Non-Toxic
half-life [12]: 76.2 min
Activity [13]: Non-Toxic
Activity [14]: Non-Toxic
inhibition in vivo at 5 mg/kg (HCT-116 [15]): 56%
Activity [16]: Non-Toxic
Activity [17]: Non-Toxic
Activity [18]: Non-Toxic
inhibition in vivo at 20 mg/kg (HCT-116 [19]): 69%
Cmax [20]: 4010 ng/mL
Activity [21]: 27.7%
MRT last [22]: 33.6 min
AUC(0-t) (in vivo [23]): 2330 ng·h/mL
bioavailability [24]: 61.1%
Cmax [25]: 2790 ng/mL
Activity [26]: 23.9%
Activity [27]: Non-Toxic
MRT last [28]: 1.29 h
half-life [29]: 61.8 min
